Read-outs that look alike come from different tables or passages of the source.
Assays:
K-562 = test: NCI-60 cytotoxicity screen; type: cell-based
MOLT-4 = test: NCI-60 cytotoxicity screen; type: cell-based
HOP-92 = test: NCI-60 cytotoxicity screen; type: cell-based
NCI-H322M = test: NCI-60 cytotoxicity screen; type: cell-based
NCI-H522 = test: NCI-60 cytotoxicity screen; type: cell-based
COLO 205 = test: NCI-60 cytotoxicity screen; type: cell-based
HCC-2998 = test: NCI-60 cytotoxicity screen; type: cell-based
SNB-75 = test: NCI-60 cytotoxicity screen; type: cell-based
SK-MEL-5 = test: NCI-60 cytotoxicity screen; type: cell-based
UACC-62 = test: NCI-60 cytotoxicity screen; type: cell-based
IGROV1 = test: NCI-60 cytotoxicity screen; type: cell-based
NCI/ADR-RES = test: NCI-60 cytotoxicity screen; type: cell-based
ACHN = test: NCI-60 cytotoxicity screen; type: cell-based
CAKI-1 = test: NCI-60 cytotoxicity screen; type: cell-based
UO-31 = test: NCI-60 cytotoxicity screen; type: cell-based
HS 578T = test: NCI-60 cytotoxicity screen; type: cell-based
HBC-4 = test: JFCR-39 cytotoxicity screen; type: cell-based
SF-539 = test: JFCR-39 cytotoxicity screen; type: cell-based
SNB-78 = test: JFCR-39 cytotoxicity screen; type: cell-based
HT-29 = test: JFCR-39 cytotoxicity screen; type: cell-based
A549 = test: JFCR-39 cytotoxicity screen; type: cell-based
MKN1 = test: JFCR-39 cytotoxicity screen; type: cell-based
[1] = system: JFCR 39 human cancer cell lines; test: JFCR-39 screen, means, ranges and selectivity over panels; type: cell-based; conditions: for GI50: Homo sapiens
Method: Both NSC745885 and NSC757963 satisfied the pre-determined threshold inhibition criteria of the NCI-60 One-Dose Screening, so they were tested against the panels of 60 cancer cell lines of NCI (NCI-60) and 39 cancer cell lines of JFCR (JFCR-39), each cell line was tested at five small doses of our compounds. Results are expressed as the 50% growth inhibition concentration (GI50), the 50% lethal concentration (LC50) and the total growth inhibition (TGI), compared to the values of untreated control cells.
To characterize the selectivity of NSC745885 and NSC757963 further among the different types of cancer, we determined their selectivity ratios towards each cell line subpanel used in the cytotoxicity experiments. […] The promising activity of this compound is evident from the small mean GI50 values. […] The strongest activity was towards the leukemia subpanel and the least one was towards the colon cancer subpanel. […] The strongest activity was towards the melanoma subpanel and the least one was towards the colon cancer subpanel.
All cell lines were published before.

OVCAR-3 = conditions: JFCR
[2] = Homo sapiens, Fig 7, read-out: mean log10 of the GI50 values (converted)
[3] = Homo sapiens, five-dose, read-out: GI50
[4] = Homo sapiens, five-dose, read-out: LC50 (the source's name)
[5] = Homo sapiens, read-out: LC50 (the source's name)

SMILES: O=C1c2ccccc2C(=O)c2c1ccc1nsnc21 [NSC745885, anthra[1,2-c][1,2,5]thiadiazole-6,11-dione]
- GI50 (K-562; Homo sapiens, K562, Fig 7, read-out: mean log10 of the GI50 values (converted)): 2510 nM
- GI50 (K-562; Homo sapiens, K562, five-dose, read-out: GI50): 1920 nM
- CC50 (K-562; Homo sapiens, K562, five-dose, read-out: LC50 (the source's name)): 41200 nM
- TGI (K-562; five-dose): 15900 nM
- GI50 (MOLT-4; [2]): 891 nM
- GI50 (MOLT-4; [3]): 490 nM
- CC50 (MOLT-4; [4]): 4710 nM
- TGI (MOLT-4; five-dose): 1840 nM
- GI50 (HOP-92; [2]): 2690 nM
- GI50 (HOP-92; [3]): 2520 nM
- CC50 (HOP-92; [4]): > 100000 nM
- TGI (HOP-92; five-dose): 6640 nM
- GI50 (NCI-H322M; [2]): 36300 nM
- GI50 (NCI-H322M; [3]): 17400 nM
- CC50 (NCI-H322M; [4]): > 100000 nM
- TGI (NCI-H322M; five-dose): 47800 nM
- GI50 (NCI-H522; [2]): 2240 nM
- GI50 (NCI-H522; [3]): 1660 nM
- CC50 (NCI-H522; [4]): 9310 nM
- TGI (NCI-H522; five-dose): 3930 nM
- GI50 (COLO 205; Homo sapiens, COLO205, Fig 7, read-out: mean log10 of the GI50 values (converted)): 5130 nM
- GI50 (COLO 205; [3]): 13400 nM
- CC50 (COLO 205; [4]): 62400 nM
- TGI (COLO 205; five-dose): 28900 nM
- GI50 (HCC-2998; [2]): 5890 nM
- LC50 (concentration causing 50% net cell kill) (HCC-2998; Homo sapiens, five-dose): 66600 nM
- GI50 (HCC-2998; [3]): 16400 nM
- TGI (HCC-2998; five-dose): 33100 nM
- GI50 (SNB-75; [2]): 1700 nM
- GI50 (SNB-75; [3]): 2030 nM
- CC50 (SNB-75; [4]): 18600 nM
- TGI (SNB-75; five-dose): 5200 nM
- GI50 (SK-MEL-5; [2]): 1350 nM
- GI50 (SK-MEL-5; [3]): 1580 nM
- CC50 (SK-MEL-5; [4]): 5410 nM
- TGI (SK-MEL-5; five-dose): 2920 nM
- GI50 (UACC-62; [2]): 1820 nM
- GI50 (UACC-62; [3]): 1450 nM
- CC50 (UACC-62; [4]): 5790 nM
- TGI (UACC-62; five-dose): 2900 nM
- GI50 (IGROV1; Homo sapiens, IGROV-1, Fig 7, read-out: mean log10 of the GI50 values (converted)): 1380 nM
- GI50 (IGROV1; Homo sapiens, IGROV-1, five-dose, read-out: GI50): 1360 nM
- CC50 (IGROV1; Homo sapiens, IGROV-1, five-dose, read-out: LC50 (the source's name)): 6350 nM
- TGI (IGROV1; five-dose): 2940 nM
- GI50 (NCI/ADR-RES; [2]): 891 nM
- GI50 (NCI/ADR-RES; [3]): 1860 nM
- CC50 (NCI/ADR-RES; [4]): > 100000 nM
- TGI (NCI/ADR-RES; five-dose): 12600 nM
- GI50 (ACHN; [2]): 1580 nM
- GI50 (ACHN; [3]): 1460 nM
- CC50 (ACHN; [4]): 5270 nM
- inhibition at 10 µM (ACHN; Homo sapiens, single dose 10 μM, read-out: growth inhibition): 94.3%
- TGI (ACHN; five-dose): 2770 nM
- GI50 (CAKI-1; [2]): 1860 nM
- GI50 (CAKI-1; [3]): 1610 nM
- CC50 (CAKI-1; [4]): 5440 nM
- TGI (CAKI-1; five-dose): 2960 nM
- GI50 (UO-31; [2]): 1780 nM
- GI50 (UO-31; [3]): 1620 nM
- CC50 (UO-31; [4]): 6010 nM
- TGI (UO-31; five-dose): 3120 nM
- TGI (HS 578T; HS 578T, five-dose): 5020 nM
- GI50 (HS 578T; Homo sapiens, Hs-578T, HS578T, Fig 7, read-out: mean log10 of the GI50 values (converted)): 2630 nM
- GI50 (HS 578T; Homo sapiens, HS 578T, five-dose, read-out: GI50): 1410 nM
- CC50 (HS 578T; Homo sapiens, HS 578T, five-dose, read-out: LC50 (the source's name)): 56000 nM
- TGI (HBC-4): 3000 nM
- GI50 (HBC-4; Homo sapiens, HBC4): 1700 nM
- CC50 (HBC-4; Homo sapiens, HBC4, read-out: LC50 (the source's name)): 5500 nM
- TGI (SF-539): 3600 nM
- GI50 (SF-539; Homo sapiens): 1900 nM
- CC50 (SF-539; [5]): 6600 nM
- TGI (SNB-78): 3400 nM
- GI50 (SNB-78; Homo sapiens): 1700 nM
- CC50 (SNB-78; [5]): 6900 nM
- TGI (HT-29): 39000 nM
- GI50 (HT-29; Homo sapiens): 19000 nM
- CC50 (HT-29; [5]): 81000 nM
- TGI (A549): 41000 nM
- GI50 (A549; Homo sapiens): 19000 nM
- CC50 (A549; [5]): 89000 nM
- TGI (MKN1): 1500 nM
- GI50 (MKN1; Homo sapiens, MKN-1): 470 nM
- CC50 (MKN1; Homo sapiens, MKN-1, read-out: LC50 (the source's name)): 4300 nM
- selectivity ratios of the JFCR subpanels (for NSC745885 except melanoma) [1]: less than 3
- GI50 ([1]; JFCR Breast Cancer, read-out: Mean GI50 of subpanel): 1660 nM
- GI50 ([1]; JFCR CNS Cancer, read-out: Mean GI50 of subpanel): 1870 nM
- GI50 ([1]; JFCR Colon Cancer, read-out: Mean GI50 of subpanel): 5360 nM
- GI50 ([1]; JFCR Lung Cancer, read-out: Mean GI50 of subpanel): 4130 nM
- GI50 ([1]; JFCR Melanoma, read-out: Mean GI50 of subpanel): 860 nM
- GI50 ([1]; JFCR Ovarian Cancer, read-out: Mean GI50 of subpanel): 1630 nM
- GI50 ([1]; JFCR Prostate Cancer, read-out: Mean GI50 of subpanel): 1650 nM
- GI50 ([1]; JFCR Renal Cancer, read-out: Mean GI50 of subpanel): 2100 nM
- GI50 ([1]; JFCR Stomach Cancer, read-out: Mean GI50 of subpanel): 1710 nM
- GI50 ([1]; all JFCR subpanels, read-out: mean GI50 values of the JFCR subpanels, range): 860 to 5360 nM
- GI50 ([1]; equivalent to MG-MID, read-out: Mean GI50 of all JFCR-39 cell line panels): 2620 nM
- GI50 ([1]; five-dose, read-out: JFCR-39 GI50 values, range over cell lines): 470 to 19000 nM
- Selectivity ratio ([1]; JFCR Breast Cancer): 1.58
- Selectivity ratio ([1]; JFCR CNS Cancer): 1.4
- Selectivity ratio ([1]; JFCR Colon Cancer): 0.49
- Selectivity ratio ([1]; JFCR Lung Cancer): 0.63
- Selectivity ratio ([1]; JFCR Melanoma): 3.04
- Selectivity ratio ([1]; JFCR Ovarian Cancer): 1.6
- Selectivity ratio ([1]; JFCR Prostate Cancer): 1.59
- Selectivity ratio ([1]; JFCR Renal Cancer): 1.25
- Selectivity ratio ([1]; JFCR Stomach Cancer): 1.53
- TGI (OVCAR-3): 2000 nM

Reference: publication PMC4839570, “Novel Anthra[1,2-c][1,2,5]Thiadiazole-6,11-Diones as Promising Anticancer Lead Compounds: Biological Evaluation, Characterization & Molecular Targets Determination” (PLoS ONE, 2016)
